Laboratory results reported in patent US20160376240A1, “6 Phenyl or 6 Pyridin 3 YL Indazole Derivatives and Methods of Use” (ABBVIE INC., priority 2014, published 2016).

Target: T1, TrkA (Homo sapiens, UniProt P04629)
T1 construct: purchased Invitrogen PV3144
Test: TrkA kinase inhibition, HTRF assay
Assay type: biochemical
Conditions: LCK peptide substrate 125 nM, TrkA 2-10 nM pre-incubated with ATP 200 μM
How it was run: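 TrkA (2-10 nM) preactivated 20 min with 200 μM ATP in HEPES pH 7.4 with Mg2+/Mn2+, then compound for 10 min, then 125 nM biotinylated LCK-peptide for 1 h at ambient temperature. HTRF 665/620 ratio read; IC50 fitted from initial-rate percent inhibition.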

T1 sequence (P04629 33-796): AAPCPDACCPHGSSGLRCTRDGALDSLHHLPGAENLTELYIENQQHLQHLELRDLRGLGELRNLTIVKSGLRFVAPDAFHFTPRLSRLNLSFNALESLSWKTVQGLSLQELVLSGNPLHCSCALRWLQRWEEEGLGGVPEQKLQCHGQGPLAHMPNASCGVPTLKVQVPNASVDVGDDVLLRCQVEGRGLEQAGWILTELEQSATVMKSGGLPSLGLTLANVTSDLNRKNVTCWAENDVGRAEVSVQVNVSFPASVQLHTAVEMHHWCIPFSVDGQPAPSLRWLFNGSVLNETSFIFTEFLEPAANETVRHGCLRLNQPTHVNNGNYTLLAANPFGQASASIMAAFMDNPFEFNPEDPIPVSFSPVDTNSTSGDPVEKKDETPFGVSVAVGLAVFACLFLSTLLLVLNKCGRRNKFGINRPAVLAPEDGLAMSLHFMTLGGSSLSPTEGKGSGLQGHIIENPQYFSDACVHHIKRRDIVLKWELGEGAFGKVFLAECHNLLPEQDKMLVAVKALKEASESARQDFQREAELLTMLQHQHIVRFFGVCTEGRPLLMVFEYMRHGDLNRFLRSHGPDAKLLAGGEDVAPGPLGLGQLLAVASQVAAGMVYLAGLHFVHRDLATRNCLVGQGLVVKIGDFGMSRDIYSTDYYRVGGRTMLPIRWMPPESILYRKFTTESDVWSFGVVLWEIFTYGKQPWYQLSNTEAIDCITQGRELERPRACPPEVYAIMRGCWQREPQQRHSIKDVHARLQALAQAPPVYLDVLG

Compound | IC50 [nM]
NC(=O)c1ccc(-c2cc(OC3CCCC3)c3c(N)n[nH]c3c2)cc1N1CCN(C(=O)N2CCOCC2)CC1 [Example 82, 4-[3-amino-4-(cyclopentyloxy)-1H-indazol-6-yl]-2-[4-(morpholin-4-ylcarbonyl)piperazin-1-yl]benzamide] | 22.3
NC(=O)c1ccc(-c2ccc3c(N)n[nH]c3c2)cc1N1CCN(c2ccccc2)CC1 [Example 84, 4-(3-amino-1H-indazol-6-yl)-2-(4-phenylpiperazin-1-yl)benzamide] | 24.3
NC(=O)c1ccc(-c2ccc3c(N)n[nH]c3c2)cc1N1CCN(c2ccccn2)CC1 [Example 86, 4-(3-amino-1H-indazol-6-yl)-2-[4-(pyridin-2-yl)piperazin-1-yl]benzamide] | 16.1
NC(=O)c1ccc(-c2ccc3c(N)n[nH]c3c2)cc1N1CCN(Cc2ccccc2)CC1 [Example 87, 4-(3-amino-1H-indazol-6-yl)-2-(4-benzylpiperazin-1-yl)benzamide] | 43.3
NC(=O)c1ccc(-c2ccc3c(N)n[nH]c3c2)cc1N1CCN(C2CC2)CC1 [Example 88, 4-(3-amino-1H-indazol-6-yl)-2-(4-cyclopropylpiperazin-1-yl)benzamide] | 8440
NC(=O)c1ccc(-c2ccc3c(N)n[nH]c3c2)cc1N1CCN(CCN2CCOCC2)CC1 [Example 89, 4-(3-amino-1H-indazol-6-yl)-2-{4-[2-(morpholin-4-yl)ethyl]piperazin-1-yl}benzamide] | 13500
NC(=O)c1ccc(-c2ccc3c(N)n[nH]c3c2)cc1N1CCN(c2cccnc2)CC1 [Example 90, 4-(3-amino-1H-indazol-6-yl)-2-[4-(pyridin-3-yl)piperazin-1-yl]benzamide] | 227
CC(Oc1cc(-c2ccc(C(N)=O)c(N3CCN(C4CCCCC4)CC3)c2)cc2[nH]nc(N)c12)C(F)(F)F (stereo not drawn) [Example 93, 4-{3-amino-4-[(1,1,1-trifluoropropan-2-yl)oxy]-1H-indazol-6-yl}-2-(4-cyclohexylpiperazin-1-yl)benzamide] | 27
CC(Oc1cc(-c2ccc(C(N)=O)c(N3CCN(c4ccccn4)CC3)c2)cc2[nH]nc(N)c12)C(F)(F)F (stereo not drawn) [Example 94, 4-{3-amino-4-[(1,1,1-trifluoropropan-2-yl)oxy]-1H-indazol-6-yl}-2-[4-(pyridin-2-yl)piperazin-1-yl]benzamide] | 2.41
CC(Oc1cc(-c2ccc(C(N)=O)c(N3CCN(CCN4CCOCC4)CC3)c2)cc2[nH]nc(N)c12)C(F)(F)F (stereo not drawn) [Example 95, 4-{3-amino-4-[(1,1,1-trifluoropropan-2-yl)oxy]-1H-indazol-6-yl}-2-{4-[2-(morpholin-4-yl)ethyl]piperazin-1-yl}benzamide] | 89.8
CC(Oc1cc(-c2ccc(C(N)=O)c(N3CCN(c4ccncc4)CC3)c2)cc2[nH]nc(N)c12)C(F)(F)F (stereo not drawn) [Example 98, 4-{3-amino-4-[(1,1,1-trifluoropropan-2-yl)oxy]-1H-indazol-6-yl}-2-[4-(pyridin-4-yl)piperazin-1-yl]benzamide] | 539
CC(Oc1cc(-c2ccc(C(N)=O)c(N3C[C@H]4CN(Cc5ccccc5)C[C@H]4C3)c2)cc2[nH]nc(N)c12)C(F)(F)F (stereo partly drawn) [Example 99, 4-{3-amino-4-[(1,1,1-trifluoropropan-2-yl)oxy]-1H-indazol-6-yl}-2-[(3aR*,6aS*)-5-benzylhexahydropyrrolo[3,4-c]pyrrol-2(1H)-yl]benzamide] | 852
CC(Oc1cc(-c2ccc(C(N)=O)c(N3CCN(CCC(C)(C)C)CC3)c2)cc2[nH]nc(N)c12)C(F)(F)F (stereo not drawn) [Example 100, 4-{3-amino-4-[(1,1,1-trifluoropropan-2-yl)oxy]-1H-indazol-6-yl}-2-[4-(3,3-dimethylbutyl)piperazin-1-yl]benzamide] | 4.98
CC(Oc1cc(-c2ccc(C(N)=O)c(N3CCN(C(=O)C4CC4)CC3)c2)cc2[nH]nc(N)c12)C(F)(F)F (stereo not drawn) [Example 103, 4-{3-amino-4-[(1,1,1-trifluoropropan-2-yl)oxy]-1H-indazol-6-yl}-2-[4-(cyclopropylcarbonyl)piperazin-1-yl]benzamide] | 19.4
CC(Oc1cc(-c2ccc(C(N)=O)c(N3CCN(C(=O)C(C)(C)C)CC3)c2)cc2[nH]nc(N)c12)C(F)(F)F (stereo not drawn) [Example 104, 4-{3-amino-4-[(1,1,1-trifluoropropan-2-yl)oxy]-1H-indazol-6-yl}-2-[4-(2,2-dimethylpropanoyl)piperazin-1-yl]benzamide] | 14
NC(=O)c1ccc(-c2cc(OC3CCCC3)c3c(N)n[nH]c3c2)cc1N1CCN(CC(=O)N2CCCCC2)CC1 [Example 107, 4-[3-amino-4-(cyclopentyloxy)-1H-indazol-6-yl]-2-{4-[2-oxo-2-(piperidin-1-yl)ethyl]piperazin-1-yl}benzamide] | 44
CNC(=O)c1ccc(-c2cc(OC3CCOCC3)c3c(N)n[nH]c3c2)cc1N1CCN(C(=O)OC(C)(C)C)CC1 [Example 111, tert-butyl 4-{5-[3-amino-4-(tetrahydro-2H-pyran-4-yloxy)-1H-indazol-6-yl]-2-(methylcarbamoyl)phenyl}piperazine-1-carboxylate] | 26.8
CNC(=O)c1ccc(-c2cc(OC3CCOCC3)c3c(N)n[nH]c3c2)cc1N1CCNCC1 [Example 112, 4-[3-amino-4-(tetrahydro-2H-pyran-4-yloxy)-1H-indazol-6-yl]-N-methyl-2-(piperazin-1-yl)benzamide] | 7.11
CNC(=O)c1ccc(-c2cc(OC3CCOCC3)c3cn[nH]c3c2)cc1N1CCN(C2CCCCC2)CC1 [Example 116, 2-(4-cyclohexylpiperazin-1-yl)-N-methyl-4-[4-(tetrahydro-2H-pyran-4-yloxy)-1H-indazol-6-yl]benzamide] | 77.8
CC(=O)Nc1ccc(-c2cc(OC3CCOCC3)c3c(C)n[nH]c3c2)cc1N1CCN(C2CCCCC2)CC1 [Example 119, N-{2-(4-cyclohexylpiperazin-1-yl)-4-[3-methyl-4-(tetrahydro-2H-pyran-4-yloxy)-1H-indazol-6-yl]phenyl}acetamide] | 31.1
CCNC(=O)c1ccc(-c2cc(OC3CCCC3)c3cn[nH]c3c2)cc1N1CCN(c2ccccc2)CC1 [Example 120, 4-[4-(cyclopentyloxy)-1H-indazol-6-yl]-N-ethyl-2-(4-phenylpiperazin-1-yl)benzamide] | 82.5
CNC(=O)c1ccc(-c2cc(OC3CCCC3)c3c(C)n[nH]c3c2)cc1N1CCN(C2CCCCC2)CC1 [Example 121, 2-(4-cyclohexylpiperazin-1-yl)-4-[4-(cyclopentyloxy)-3-methyl-1H-indazol-6-yl]-N-methylbenzamide] | 17.3
CNC(=O)c1ccc(-c2cc(OC3CCOCC3)c3c(C)n[nH]c3c2)cc1N1CCN(C(=O)OC(C)(C)C)CC1 [Example 122, tert-butyl 4-{2-(methylcarbamoyl)-5-[3-methyl-4-(tetrahydro-2H-pyran-4-yloxy)-1H-indazol-6-yl]phenyl}piperazine-1-carboxylate] | 8.14

Results, then the molecule that gave them:

IC50 [nM] | Compound
8330 | NC(=O)c1ccc(-c2ccc3c(N)n[nH]c3c2)cc1N1CCN(CC(=O)N2CCCC2)CC1 [Example 83, 4-(3-amino-1H-indazol-6-yl)-2-{4-[2-oxo-2-(pyrrolidin-1-yl)ethyl]piperazin-1-yl}benzamide]
2240 | NC(=O)c1ccc(-c2ccc3c(N)n[nH]c3c2)cc1N1CCN(C2CCCCC2)CC1 [Example 85, 4-(3-amino-1H-indazol-6-yl)-2-(4-cyclohexylpiperazin-1-yl)benzamide]
89.2 | CC(=O)N1CCN(c2cc(-c3cc(OC(C)C(F)(F)F)c4c(N)n[nH]c4c3)ccc2C(N)=O)CC1 (stereo not drawn) [Example 96, 2-(4-acetylpiperazin-1-yl)-4-{3-amino-4-[(1,1,1-trifluoropropan-2-yl)oxy]-1H-indazol-6-yl}benzamide]
27.3 | CC(Oc1cc(-c2ccc(C(N)=O)c(N3CCN(C4CC4)CC3)c2)cc2[nH]nc(N)c12)C(F)(F)F (stereo not drawn) [Example 97, 4-{3-amino-4-[(1,1,1-trifluoropropan-2-yl)oxy]-1H-indazol-6-yl}-2-(4-cyclopropylpiperazin-1-yl)benzamide]
3.23 | CNC(=O)c1ccc(-c2cc(O[C@H](C)C(F)(F)F)c3c(N)n[nH]c3c2)cc1OCCOC1CCCCC1 [Example 105, 4-(3-amino-4-{[(2R)-1,1,1-trifluoropropan-2-yl]oxy}-1H-indazol-6-yl)-2-[2-(cyclohexyloxy)ethoxy]-N-methylbenzamide]
2.67 | CNC(=O)c1ccc(-c2cc(O[C@H](C)C(F)(F)F)c3c(N)n[nH]c3c2)cc1OCCOc1ccccc1 [Example 106, 4-(3-amino-4-{[(2R)-1,1,1-trifluoropropan-2-yl]oxy}-1H-indazol-6-yl)-N-methyl-2-(2-phenoxyethoxy)benzamide]
80.8 | CNC(=O)c1ccc(-c2cc(OC3CCOCC3)c3c(N)n[nH]c3c2)cc1N1CCN(C(=O)OC(C)C)CC1 [Example 114, isopropyl 4-{5-[3-amino-4-(tetrahydro-2H-pyran-4-yloxy)-1H-indazol-6-yl]-2-(methylcarbamoyl)phenyl}piperazine-1-carboxylate]
32.8 | CCNC(=O)c1ccc(-c2cc(OC3CCOCC3)c3c(C)n[nH]c3c2)cc1N1CCN(c2ccccc2)CC1 [Example 115, N-ethyl-4-[3-methyl-4-(tetrahydro-2H-pyran-4-yloxy)-1H-indazol-6-yl]-2-(4-phenylpiperazin-1-yl)benzamide]
17.7 | Cc1n[nH]c2cc(-c3ccc(C(=O)NC4CC4)c(N4CCN(c5ccccc5)CC4)c3)cc(OC3CCOCC3)c12 [Example 117, N-cyclopropyl-4-[3-methyl-4-(tetrahydro-2H-pyran-4-yloxy)-1H-indazol-6-yl]-2-(4-phenylpiperazin-1-yl)benzamide]
39.8 | Cc1n[nH]c2cc(-c3ccc(C(=O)NC4CCC4)c(N4CCN(C5CCCCC5)CC4)c3)cc(OC3CCOCC3)c12 [Example 118, N-cyclobutyl-2-(4-cyclohexylpiperazin-1-yl)-4-[3-methyl-4-(tetrahydro-2H-pyran-4-yloxy)-1H-indazol-6-yl]benzamide]
